According to US12296024B2, “Modified zinc oxide nanocomposite, antibiotic composition comprising the same, and combination preparation with the same” (UIF (University Industry Foundation), Yonsei University, priority 2021, dated 2025):

Test system: Aspergillus spores
Assay: Effect of ions on fungal growth
Type: cell-based
Conditions: 1000 Aspergillus spores/dish, 37° C., day 3 of culture, FIG. 8B
Method: To investigate the effect of ions on fungal growth, salt solutions were added at a high molecular concentration (0.1 M, 10 μL) and a low molecular concentration ([…], 10 μL) and fungi were cultured at 37° C. under conditions of 1000 Aspergillus spores/dish. The results are illustrated in FIG. 8B based on the colonies on day 3 of culture.

SMILES	effect of ions on fungal growth compared with Na+, Mg2+ or NH4+ ions
O=[N+]([O-])[O-].O=[N+]([O-])[O-].[Zn+2] [Zn(NO3)2]	greater effect
[Cl-].[Cl-].[Zn+2] [ZnCl2]	greater effect
